Residue numbers refer to the chain shown, from its start.
Columns and labels:
Type in all cases: biochemical
[1] = target: T1, human manganese superoxide dismutase (hMn SOD), wild type, SEQ ID NO:2 (Homo sapiens, UniProt P04179); experiment: Decay of superoxide catalyzed by wild-type hMnSOD, pulse radiolysis; conditions: obtained from Table 3 data and eqs 5-9 of Bull et al. (1991)
T1 construct: where it is then cleaved off leaving the mature protein
T1 sequence (P04179 25-222): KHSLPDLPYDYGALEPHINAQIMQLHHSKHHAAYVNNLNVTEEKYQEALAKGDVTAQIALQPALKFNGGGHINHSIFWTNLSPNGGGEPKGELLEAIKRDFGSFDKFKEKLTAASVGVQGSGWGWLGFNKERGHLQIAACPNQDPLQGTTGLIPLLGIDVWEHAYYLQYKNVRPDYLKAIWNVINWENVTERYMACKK
Method: (§1) Experiments were carried out at the Center for Fast Kinetics Research at the University of Texas at Austin using a 4-Mev van der Graaff accelerator. A single high-dose electron pulse was used to generate superoxide radical anions from oxygen in acqueous solutions containing 10 mM sodium formate as hydroxyl radical scavenger (Schwartz, 1981) and 50 μM EDTA in addition to buffer and enzyme. All pulse radiolysis experiments were carried out at 20 ° C. The dismutation of O2^- was followed spectrophotometrically from its absorbance at 250 nm (ε=2000M^1 cm^1, Rabani and Nielson, 1969) with a path length of 2.5 cm. Progress curves for each set of 6 to 9 experiments were averaged. Exposure to ultraviolet radiation was minimized by opening a mechanical shutter a fraction of a second before each pulse.

[2] = target: T2, human manganese superoxide dismutase (hMn SOD) variant Y34F (Tyr 34 replaced by Phe) (Homo sapiens, UniProt P04179, Y58F); experiment: Decay of superoxide catalyzed by Y34F hMnSOD, pulse radiolysis
T2 construct: as a mature protein tagged with an extra Met at the amino terminus; made in house; host or cells: E. coli QC774 (SodA/SodB mutant), pTrc99A
T2 sequence (P04179 25-222 Y58F): T1 sequence (P04179 25-222) with Y34F
Method: as §1
The kinetic mechanism of FIG. 8 used to describe the wild-type MnSOD can also describe catalysis by Y34F Mn SOD (FIG. 7), as shown by pulse radiolysis. […] In this stimulation, the breakdown of the enzyme-substrate complex for enzyme in the reduced state, represented by k3 in the scheme of FIG. 8, is much slower for Y34F compared with wild-type, whereas the values of k3 are the same for both enzymes. […] The rate constants in Y34F for actual formation of the dead-end complex itself, k5 and k5 are quite similar to those for wild-type.

[3] = target: T3, human manganese superoxide dismutase (hMn SOD) variant H30A (His 30 replaced by Ala) (Homo sapiens, UniProt P04179, H54A); experiment: Disproportionation of superoxide by H30A hMnSOD, stopped-flow, 20° C.; conditions: pH 9.6, 20° C.
T3 construct: as a mature protein tagged with an extra Met at the amino terminus; made in house
T3 sequence (P04179 25-222 H54A): T1 sequence (P04179 25-222) with H30A
Method: Experiments were based on the stabilization of KO2 in aprotic solvent and the subsequent large dilution of this solution by an aqueous solution of enzyme in a stopped-flow apparatus, as described by McClune and Fee (1978). KO2 was dissolved in a mixture of dimethyl sulfoxide and […] (2:1 by volume; Aldrich, spectrophotometric grade) with solubility of KO2 enhanced with 18-crown-6 (Valentine and Curtis, 1975). The stopped-flow spectrophotometer (Kinetic Instruments, Ann Arbor, Mich.) was capable of efficient mixing of this solution with an acqueous solution of enzyme in buffer with a dead time between 1.5 and 2.0 ms. One drive syringe (capacity 50 μl) contained the aprotic solution of O2. This was diluted fifty-fold by the contents of a second syringe (capacity 2.5 ml) which contained enzyme, EDTA, and buffer. The decay of superoxide in initial velocity experiments and progress curves was monitored by its absorption at 250 to 300 nm. Stopped-flow experiments were carried out at […]. Four or more kinetic traces were averaged to reduce noise. Steady-state parameters were obtained by least-squares analysis of such data (Leatherbarrow (1987) "Enzfitter: a nonlinear regression data analysis program for the IBM PC" Elsevier BIOSOFT, Cambridge).
In the present study, several novel hMnSOD proteins containing substitutions of His 30 (referring to the amino acid sequence of SEQ ID NO:2) were prepared by PCR site directed mutagenesis and purified by column chromatography, as described in the Materials and Methods section above, and as also described by Hsu et al. (1996) J. Biol. Chem. 271: 1768; and Hsieh et al. (1998) Biochemistry 37: 4731. In particular, His 30 was substituted with each of Ala, Asn, Ser and Gln. The resulting novel hMnSOD proteins containing a His 30 substitution were then assayed for enzymatic activity and product inhibition at 20° C. by measuring the absorbance of superoxide at 250 nm using stopped-flow spectrophotometry, as described above in the Materials and Methods section. […]

[4] = Table 1, pulse radiolysis, 20° C., pH 9.6 (Guan et al., 1997)
[5] = Table 3, KINSIM fit to pulse radiolysis data, 20° C., pH 9.6

**Q.** For `[O]O` [superoxide], which Km [1] is on record?
**A.** Its Km is 50 µM.

**Q.** And the kcat [2, 4]?
**A.** The kcat was 3.3 ms^-1.

**Q.** And the kcat /km [2, 4]?
**A.** The kcat /km was 8.7e+08 M⁻¹ s⁻¹.

**Q.** And the k1 [2, 5]?
**A.** Its k1 is 1000 s⁻¹.

**Q.** And the k2 [2, 5]?
**A.** The k2 was 5000 s⁻¹.

**Q.** And the k4 [2, 5]?
**A.** The k4 was 1000 M⁻¹ s⁻¹.

**Q.** What about the k5 [2, 5] of the same compound?
**A.** The k5 was 200 s⁻¹.

**Q.** What about the k-1 [2, 5] of the same compound?
**A.** The k-1 was 2e+09 M⁻¹ s⁻¹.

**Q.** And the k-3 [2, 5]?
**A.** Its k-3 is 2e+09 M⁻¹ s⁻¹.

**Q.** What about the k-4 [2, 5] of the same compound?
**A.** Its k-4 is 10000 s⁻¹.

**Q.** And the k-5 [2, 5]?
**A.** Its k-5 is 2 × 10^4.

**Q.** And the “kcat /km (diffusion controlled)” value ([2]; approximate value)?
**A.** The value was ~10^9 M^-1 s^-1.

**Q.** What about the Km ([2]; obtained from Table 3 data and eqs 5-9 of Bull et al. (1991)) of the same compound?
**A.** Its Km is 4 µM.

**Q.** And the kcat ([3]; Table 4)?
**A.** The kcat was 1.9 ms^.1.

**Q.** And the “kcat /Km” value ([3]; Table 4)?
**A.** The value was 20 μM^.1 S^.1.

**Q.** And the “ko /[E] (rate constant for the zero-order region of catalysis)” value ([3]; Table 5)?
**A.** The value was 610 S^.1.
